The values that follow come from patent US7015218B1, “Amide compounds and medicinal use thereof” (Mitsubishi Pharma Corporation, priority 1999, dated 2006).

In the series the test system is DBA/1J mouse. Nature of the series: Type II collagen induced arthritis in DBA/1J mouse. The series is classed as in vivo. As to the method: An emulsion was prepared by mixing bovine type II collagen (100–200 μg, purchased from Collagen Gizyutsu Kensyukai) with Freund's complete adjuvant (Sigma) containing dead tubercle bacillus H37Ra was given to 6–7 week-old male DBA/1J mice (Charles River Japan) subcutaneously from the root of the tail for immunization twice at 3 week intervals, thereby developing arthritis. The compound of the present invention or a pharmaceutically acceptable salt thereof was suspended or dissolved in 0.5% hydroxypropylmethylcellulose and orally administered repeatedly at the dose of 0.01–100 mg/kg body weight using an oral sound for 6 weeks from the first immunization. This model was evaluated for the symptoms of arthritis in the four limbs according to the following criteria in 0 to 4 scores. The arthritis score of each mouse was expressed by the total of the scores of the four limbs (maximum:16 points), and when the total score was 1 or more, the onset of arthritis was acknowledged.
The thickness of the four limbs of the mouse was measured with vernier calipers and the total score of the four limbs was used as an index of arthritis. Using a soft X-ray photography (OHMIC co.), the four limbs were X rayed to evaluate the level of destruction of the joints. […]

As to `Cc1c(C(=O)Nc2ccc(C(F)(F)F)cc2)cnn1-c1ccc(F)cc1` [1-(4-fluorophenyl)-N-(4-trifluoromethylphenyl)-5-methylpyrazole-4-carboxamide], the “improvement of severity of developed arthritis, swelling of four limbs or joint destruction” value (repeat oral administration at 10 mg/kg body weight) is “did not improve”. Moreover, for the setting “repeat oral administration at 30 mg/kg body weight”, the death incidence entry was “death incidence was confirmed”.
